Test results: ChEMBL document CHEMBL1201862, “PubChem BioAssay data set” (2004)
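Assay format: 96-well plates, 48-hour exposure. The concentration for 50% growth inhibition is given as GI50.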 The source made the active and inactive calls. Cut-off read from the data, not from the text of the source: active = GI50 up to about 1.1 µM and inactive = higher.

Assays:
Assay in all cases: growth of human tumour cells (NCI), 48 h
[1] = system: COLO 205
[2] = system: DMS-273
[3] = system: HOP-62
[4] = system: HOP-92
[5] = system: KM-20L2
[6] = system: KM12
[7] = system: M14
[8] = system: MOLT-4
[9] = system: NCI-H522
[10] = system: OVCAR-4
[11] = system: RXF 393
[12] = system: SF-295
[13] = system: SK-MEL-28
[14] = system: SN12C
[15] = system: SNB-19
[16] = system: U-251

Measured: GI50

CC(C)(c1ccccc1)c1ccc(OC#N)cc1
inactive: [1] > 41.3 µM | [2] 17 µM | [3] > 100 µM | [4] 37.3 µM | [5] > 60.3 µM | [6] > 75 µM | [7] > 100 µM | [8] 35.2 µM | [9] 15.2 µM | [10] 71.4 µM | [11] 46.1 µM | [12] 60.8 µM | [13] > 70.5 µM | [14] 60.5 µM | [15] > 78 µM | [16] 47.2 µM

Cc1nc(N)sc1C(=O)/C=C\c1ccc2c(c1)OCO2
inactive: [1] > 100 µM | [2] > 100 µM | [3] > 100 µM | [4] > 100 µM | [5] > 100 µM | [6] > 100 µM | [7] > 100 µM | [8] > 100 µM | [9] > 100 µM | [10] > 100 µM | [11] > 100 µM | [12] > 100 µM | [13] > 100 µM | [14] > 100 µM | [15] > 100 µM | [16] > 100 µM
